Measured values as given in patent US10718760B2, “Method for drug binding analysis in a tissue sample” (Treat4Life AB, priority 2015, dated 2020).

Molecular target: BRAF target protein with V600E mutation (Homo sapiens, UniProt P15056, V600E)
Test: MALDI-MSI displacement competitive binding on malignant melanoma tissue sections
Conditions: for Isotope Signal: 1 hour, MS/MS m/z 389.1
Experimental: (1) Making 10 micrometer sectioning of the frozen Human Malignant Melanoma tissues performed at −20° C. Thereafter, (2) sample preparation was preformed by slowly thawing and drying the tumor sections at room temperature. Then, the sections were immersed into methanol for 5 min and dried at room temperature. Correspondingly, frozen Human healthy tissue resected from lymphoid nodes were handled in the same way, and used as negative controls. (3) Drug incubation was performed for one hour by using unlabeled ligand, here Vemurafenib, at a concentration of 100 nM (nanomolar) to determine the binding of the ligand molecule to its protein target. […] During titration experiments, the concentration of stable isotope labeled Vemurafenib was 100 nM, 1 μM, 10 μM and 100 μM, (micro Molar), respectively. (4) After incubation, the sections were washed by PBS 3 times and then followed by washing with MilliQ water 3 consecutive times, and (5) mass spectra were obtained using a MALDI LTQ-Orbitrap XL instrument (Thermo Scientific, Germany), and compound signals were obtained by the orbitrap and ion trap. Image analysis was conducted using ImageQuest (Thermo Scientific, Germany). For histological analysis, both H&E staining and immuno-histochemical analysis using monoclonal antibody against BRAF V600E were conducted.
The frozen Human Malignant Melanoma tissues were resected from lymphoid nodes, constituting the tumor tissue. The tissue sections were sections with 10 μm (micro meter) slices thick by the use of a cryostat, performed at −20° C. After sectioning, the slices were slowly thawed and dried at room temperature. Then, the sections were immersed into methanol for 5 min and dried at room temperature. Correspondingly, frozen Human healthy tissue resected from lymphoid nodes was used as negative controls.
Incubation was made for one hour by using unlabeled Vemurafenib at a concentration of 100 nM (nanomolar) to determine the binding of the drug molecule to its protein target. […] The incubation time during competitive binding was 1 hour. […] During titration experiments, the concentration of stable isotope labeled Vemurafenib was 100 nM, 1 μM, 10 μM and 100 μM, (micro Molar), respectively.
After incubation, the sections were washed by PBS 3 times and then followed by washing with MilliQ water 3 consecutive times.
The mass spectra were obtained using a MALDI LTQ-Orbitrap XL instrument (Thermo Scientific, Germany). The compound signals were obtained by the orbitrap and ion trap. Image analysis was conducted using ImageQuest (Thermo Scientific, Germany). For histological analysis, both H&E staining and immuno-histochemical analysis using monoclonal antibody against BRAF V600E were conducted.
Binding intensity was calculated by identifying the area of biding from the mass spec image and the intensity read is calculated by the ImageQuest software of the instrument from the signal and background data.

Chain of BRAF target protein with V600E mutation (P15056 whole entry V600E): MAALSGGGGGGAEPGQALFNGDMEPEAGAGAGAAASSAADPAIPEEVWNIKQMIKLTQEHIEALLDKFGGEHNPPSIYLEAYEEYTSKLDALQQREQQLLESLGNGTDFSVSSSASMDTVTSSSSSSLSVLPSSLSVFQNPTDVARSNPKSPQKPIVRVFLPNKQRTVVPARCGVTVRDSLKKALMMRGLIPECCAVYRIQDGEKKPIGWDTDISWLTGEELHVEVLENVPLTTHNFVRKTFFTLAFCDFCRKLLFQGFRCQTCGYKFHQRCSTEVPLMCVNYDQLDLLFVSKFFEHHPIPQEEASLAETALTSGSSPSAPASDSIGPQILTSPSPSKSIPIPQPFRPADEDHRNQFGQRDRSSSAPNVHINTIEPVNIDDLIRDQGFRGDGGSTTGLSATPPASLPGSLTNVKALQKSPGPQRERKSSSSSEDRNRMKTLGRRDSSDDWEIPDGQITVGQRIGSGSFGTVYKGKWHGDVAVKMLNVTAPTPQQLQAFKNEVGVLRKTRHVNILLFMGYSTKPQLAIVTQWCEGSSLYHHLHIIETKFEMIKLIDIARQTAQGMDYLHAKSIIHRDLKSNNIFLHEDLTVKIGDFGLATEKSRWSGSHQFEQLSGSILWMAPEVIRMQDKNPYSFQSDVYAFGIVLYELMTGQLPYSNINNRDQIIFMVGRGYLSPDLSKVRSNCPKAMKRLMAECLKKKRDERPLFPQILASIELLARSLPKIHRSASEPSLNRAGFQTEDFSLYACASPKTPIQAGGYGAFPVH

With ^13C-Vemurafenib the “Isotope Signal” value (0.1 μM ^13C-Vemurafenib co-incubated with 100 nM Vemurafenib) was 326, the “Competition with 100 nM Vemurafenib” value (1 μM ^13C-Vemurafenib co-administered, m/z 389.1, V600E patient tissue) was “outcompeting the 100 nM Vemurafenib” and the “Isotope Signal” value (1 μM ^13C-Vemurafenib co-incubated with 100 nM Vemurafenib) was 3233. The “Isotope Signal” value (10 μM ^13C-Vemurafenib co-incubated with 100 nM Vemurafenib) was 29870 and the “Isotope Signal” value (100 μM ^13C-Vemurafenib co-incubated with 100 nM Vemurafenib) was 259400.
